Test results: patent US5500423A, “5,6-dihydro-4H-imidazo[4,5,1-ij]quinolines” (Hoechst-Roussel Pharmaceuticals Inc., priority 1994, dated 1996)
Structures can show the parent of a compound that is named as a salt.

These compounds were tested on mice (assay: phenyl-p-quinone writhing assay in mice (analgesia)). Settings: Mus musculus, sc, 0.5 h, read-out: % Inhibition of Writhing.
Assay type: in vivo

Structure (SMILES) | inhibition in vivo at 20 mg/kg
c1cc2c3c(c1)nc(C1CCNCC1)n3CCC2 [2-(4-Piperidinyl)-5,6-dihydro-4H-imidazo[4,5,1-ij]quinoline fumarate] | 31%
c1cc2c3c(c1)nc(N1CCNCC1)n3CCC2 [5,6-Dihydro-2-(1-piperazinyl)-4H-imidazo[4,5,1-ij]quinoline dihydrochloride] | 57%

Same assay, conditions: Mus musculus, sc, 0.5 h; 20 mg/kg subcutaneous, 30 minutes before injection of phenylquinone; mice; read-out: % Inhibition of Writhing

Structure (SMILES) | inhibition in vivo at 20 mg/kg
Fc1ccc(C(CCCN2CCN(c3nc4cccc5c4n3CCC5)CC2)c2ccc(F)cc2)cc1 [4-[4,4-Bis(4-fluorophenyl)-butyl]-1-piperazinyl-5,6-dihydro-4H-imidazo[4,5,1-ij]quinoline] | 43%
c1cc2c3c(c1)nc(N1CCSCC1)n3CCC2 [5,6-Dihydro-2-(4-thiomorpholinyl)-4H-imidazo[4,5,1-ij]quinoline hydrochloride] | 53%
c1ccc(CCN2CCN(c3nc4cccc5c4n3CCC5)CC2)cc1 [5,6-Dihydro-2-(4-phenylethyl-1-piperazinyl)-4H-imidazo[4,5,1-ij]quinoline] | 45%
CN(C)C1CCN(c2nc3cccc4c3n2CCC4)CC1 [5,6-Dihydro-2-(4-dimethylamino-1-piperidinyl)-4H-imidazo[4,5,1-ij]quinolinefumarate] | 48%
CC(=O)N1CCC(c2nc3cccc4c3n2CCC4)CC1 [1-Acetyl-4-[5,6-dihydro-4H-imidazo[4,5,1-ij]quinolin-2-yl]piperidine] | 51%
CCOC(=O)N1CCN(c2nc3cccc4c3n2CCC4)CC1 [Ethyl-4-[5,6-dihydro-4H-imidazo[4,5,1-ij]quinolin-2-yl]-1-piperazinecarboxylate fumarate] | 47%
c1cc2c3c(c1)nc(N1CCCCC1)n3CCC2 [5,6-Dihydro-2-(1-piperidinyl)-4H-imidazo[4,5.1-ij]quinoline hydrochloride] | 68%

Same assay, conditions: Mus musculus, sc, read-out: % Inhibition of Writhing

Structure (SMILES) | inhibition in vivo at 5 mg/kg
CCC(=O)O[C@](Cc1ccccc1)(c1ccccc1)[C@H](C)CN(C)C [propoxyphene, reference compound] | 19%
